Experimental data: patent US4115385A, “Antibacterial 3-(5-tetrazolyl) penam compounds” (Pfizer Inc., priority 1977, dated 1978)
≈ marks a conversion by molar mass, not a printed value. Like-named read-outs stand apart in the source and are kept apart here.

Tested on: Streptococcus pyogenes
Assay: In vitro minimum inhibitory concentration (MIC) vs. Strep. pyogenes
Type: cell-based
Details: Streptococcus pyogenes, read-out: MIC vs. Strep. pyogenes
Experimental: The antibacterial penam compounds of the instant invention show activity against a wide variety of gram-positive and gram-negative bacteria. […] The broth is inoculated with the bacterial culture, and with the test antibiotic, and then it is incubated overnight. On the next day, the test is read visually. The minimum inhibitory concentration (MIC) is the lowest concentration of antibiotic which prevents turbidity, i.e., which prevents growth of the microorganism. In vitro activities of several of the penam compounds of the invention are presented later in this specification.
In Table II, the minimum inhibitory concentrations (MIC's) of compounds of formula I, wherein R^2 is hydrogen, against a strain of Streptococcus pyogenes, are reported; and in Table III, minimum inhibitory concentrations of compounds of formula I, wherein R^2 is hydrogen, against a strain of Staphylococcus aureus, are presented. Because of the tautomeric nature of such tetrazole derivatives, referred to hereinbefore,each of the preparations tested also contains some of the corresponding compound of formula II, wherein R^3 is hydrogen.

[1] = Table II, two-fold serial dilution, Brain-Heart Infusion broth, overnight

## CC1(C)S[C@@H]2[C@H](NC(=O)[C@H](NC(=O)CNC(=N)Cc3ccc(Cl)cc3)c3ccccc3)C(=O)N2[C@H]1c1nnn[nH]1
[1]
  MIC: 0.2 µg/mL (≈ 0.344 µM)

## CC1(C)S[C@@H]2[C@H](NC(=O)[C@H](NC(=O)CCl)c3ccco3)C(=O)N2[C@H]1c1nn[nH]n1 [6-(D-2-[2-Chloroacetamido]-2-[2-furyl]acetamido)-2,2-dimethyl-3-(5-tetrazolyl)penam]
  MIC: < 0.1 µg/mL

## COc1ccc(S(=O)(=O)N[C@@H](C(=O)N[C@@H]2C(=O)N3[C@@H]2SC(C)(C)[C@@H]3c2nn[nH]n2)c2ccccc2)cc1
[1]
  MIC: 0.2 µg/mL (≈ 0.368 µM)

## CC1(C)S[C@@H]2[C@H](NC(=O)[C@H](NC(=O)c3cccs3)c3ccccc3)C(=O)N2[C@H]1c1nnn[nH]1
  MIC: < 0.1 µg/mL

## CC1(C)S[C@@H]2[C@H](NC(=O)C(N)c3cccc([N+](=O)[O-])c3)C(=O)N2[C@H]1c1nnn[nH]1 (mixture of isomers) [DL-2-amino-2-(m-nitrophenyl)acetyl]
[1]
  MIC: 0.004 µg/mL

## CC1(C)S[C@@H]2[C@H](NC(=O)[C@H](NC(N)=O)c3ccccc3)C(=O)N2[C@H]1c1nn[nH]n1 [D-2-ureido-2-phenylacetyl, 6-(D-2-Ureido-2-phenylacetamido)-2,2-dimethyl-3-(5-tetrazolyl)-penam]
  MIC: 0.1 µg/mL (≈ 0.24 µM)

## CC1(C)S[C@@H]2[C@H](NC(=O)[C@H](NC(=O)c3ccccc3)c3ccccc3)C(=O)N2[C@H]1c1nnn[nH]1 [D-2-(benzamido)-2-phenylacetyl]
  MIC: < 0.1 µg/mL

## CC1(C)S[C@@H]2[C@H](NC(=O)[C@H](NC(=O)CNS(=O)(=O)c3ccccc3)c3ccccc3)C(=O)N2[C@H]1c1nn[nH]n1
  MIC: < 0.1 µg/mL

## CC1(C)S[C@@H]2[C@H](NC(=O)[C@H](NC(=O)CNC(=O)NC(=N)Cc3ccc(Cl)cc3)c3ccccc3)C(=O)N2[C@H]1c1nnn[nH]1
  MIC: < 0.1 µg/mL

## CC1(C)S[C@@H]2[C@H](NC(=O)[C@H](N)c3ccco3)C(=O)N2[C@H]1c1nnn[nH]1 [D-2-amino-2-(2-furyl)acetyl]
[1]
  MIC: 0.39 µg/mL (≈ 1.07 µM)

## CCN=C(NCC)SCC(=O)N[C@@H](C(=O)N[C@@H]1C(=O)N2[C@@H]1SC(C)(C)[C@@H]2c1nn[nH]n1)c1ccccc1
[1]
  MIC: 0.004 µg/mL (≈ 0.00733 µM)

## CC1(C)S[C@@H]2[C@H](NC(=O)[C@H](NC(=O)CNC(=N)c3cccc(C(N)=O)c3)c3ccccc3)C(=O)N2[C@H]1c1nnn[nH]1
  MIC: < 0.1 µg/mL

## CC1(C)S[C@@H]2[C@H](NC(=O)[C@H](NC(=O)CNC(=N)c3ccc([N+](=O)[O-])cc3)c3ccccc3)C(=O)N2[C@H]1c1nnn[nH]1
  MIC: < 0.1 µg/mL

## CCCCN=C(NCCCC)SCC(=O)N[C@@H](C(=O)N[C@@H]1C(=O)N2[C@@H]1SC(C)(C)[C@@H]2c1nn[nH]n1)c1ccccc1
[1]
  MIC: 0.004 µg/mL (≈ 0.00665 µM)

## CC1(C)S[C@@H]2[C@H](NC(=O)[C@H](NC(=O)CCNC(=O)c3cccc(Cl)c3)c3ccccc3)C(=O)N2[C@H]1c1nnn[nH]1
  MIC: < 0.1 µg/mL

## CN=C(NC)SCC(=O)N[C@@H](C(=O)N[C@@H]1C(=O)N2[C@@H]1SC(C)(C)[C@@H]2c1nn[nH]n1)c1ccccc1 [6-(D-2-[N,N'-dimethylamidinothio)acetamido]-2-phenylacetamido)-2,2-dimethyl-3-(5-tetrazolyl)penam]
[1]
  MIC: 0.004 µg/mL (≈ 0.00773 µM)

## CC1(C)S[C@@H]2[C@H](NC(=O)[C@H](NC(=O)CNC(=O)Nc3ccccc3)c3ccccc3)C(=O)N2[C@H]1c1nnn[nH]1
  MIC: < 0.1 µg/mL

## CCC(=O)NC(=O)N[C@@H](C(=O)N[C@@H]1C(=O)N2[C@@H]1SC(C)(C)[C@@H]2c1nn[nH]n1)c1ccccc1 [2-(3-propionylureido)-2-phenylacetyl]
  MIC: < 0.1 µg/mL

## CN(C)C=N[C@@H](C(=O)N[C@@H]1C(=O)N2[C@@H]1SC(C)(C)[C@@H]2c1nnn[nH]1)c1ccc(O)cc1 [6-(D-2-[Dimethylaminomethyleneamino]-2-[p-hydroxyphenyl]-acetamido)-2,2-dimethyl-3-(5-tetrazolyl)-penam]
  MIC: < 0.1 µg/mL

## CC1(C)S[C@@H]2[C@H](NC(=O)[C@H](NC(=O)CSCc3ccccc3)c3ccccc3)C(=O)N2[C@H]1c1nnn[nH]1
[1]
  MIC: 0.78 µg/mL (≈ 1.45 µM)

## CC1(C)S[C@@H]2[C@H](NC(=O)C(N)c3ccc(N)cc3)C(=O)N2[C@H]1c1nnn[nH]1 (some centres unmarked) [2-amino-2-(4-aminophenyl)acetyl]
[1]
  MIC: 0.039 µg/mL (≈ 0.1 µM)

## CCCC(=O)NC(=O)N[C@@H](C(=O)N[C@@H]1C(=O)N2[C@@H]1SC(C)(C)[C@@H]2c1nn[nH]n1)c1ccccc1 [2-(3-butyrylureido)-2-phenylacetyl]
  MIC: < 0.1 µg/mL

## CC1(C)S[C@@H]2[C@H](NC(=O)[C@H](N)C3=CCC=CC3)C(=O)N2[C@H]1c1nnn[nH]1 [D-2-amino-2-(1,4-cyclohexadienyl)acetyl, 6-(D-2-Amino-2-[1,4-cyclohexadienyl]acetamido)-2,2-dimethyl-3-(5-tetrazolyl)penam]
  MIC: < 0.1 µg/mL

## CC1(C)S[C@@H]2[C@H](NC(=O)[C@H](NC(=O)CSc3nc4ccccc4[nH]3)c3ccccc3)C(=O)N2[C@H]1c1nn[nH]n1
  MIC: < 0.1 µg/mL

## CCOc1ccc2ccccc2c1C(=O)N[C@@H]1C(=O)N2[C@@H]1SC(C)(C)[C@@H]2c1nnn[nH]1 [2-ethoxy-1-naphthoyl, 6-(2-Ethoxy-1-naphthamido)-2,2-dimethyl-3-(5-tetrazolyl)penam]
  MIC: < 0.1 µg/mL

## COc1ccc(NC(=O)N[C@@H](C(=O)N[C@@H]2C(=O)N3[C@@H]2SC(C)(C)[C@@H]3c2nnn[nH]2)c2ccc(O)cc2)cc1
  MIC: < 0.1 µg/mL

## CC1(C)S[C@@H]2[C@H](NC(=O)[C@H](NC(=O)c3ccc[nH]3)c3ccccc3)C(=O)N2[C@H]1c1nnn[nH]1
  MIC: < 0.1 µg/mL

## C/C(CN)=C(\C(=O)NC1C(=O)N2C(c3nnn[nH]3)C(C)(C)S[C@H]12)c1ccccc1 (some centres unmarked) [3-aminomethyl-2-phenylisocrotonoyl, 6-(3-Aminomethyl-2-phenylisocrotonamido)-2,2-dimethyl-3-(5-tetrazolyl)penam]
[1]
  MIC: 12.5 µg/mL (≈ 30.2 µM)

## CC1(C)S[C@@H]2[C@H](NC(=O)[C@H](NC(=O)CNC(=O)NC(=O)c3ccccc3)c3ccccc3)C(=O)N2[C@H]1c1nnn[nH]1
  MIC: < 0.1 µg/mL

## COc1ccc(C(=N)NC(=O)NCC(=O)N[C@@H](C(=O)N[C@@H]2C(=O)N3[C@@H]2SC(C)(C)[C@@H]3c2nnn[nH]2)c2ccccc2)cc1
[1]
  MIC: 1.56 µg/mL (≈ 2.57 µM)

## CC1(C)S[C@@H]2[C@H](NC(=O)[C@H](NC(=O)CNC(=O)NC(=N)NCc3ccc(Cl)cc3)c3ccccc3)C(=O)N2[C@H]1c1nn[nH]n1
[1]
  MIC: 0.39 µg/mL (≈ 0.609 µM)

## CC1(C)S[C@@H]2[C@H](NC(=O)[C@H](N)c3ccc(N)cc3)C(=O)N2[C@H]1c1nnn[nH]1 [D-2-amino-(4-aminophenyl)acetyl, 6-(D-2-Amino-2-[4-aminophenyl]acetamido)-2,2-dimethyl-3-(5-tetrazolyl)penam]
[1]
  MIC: 0.39 µg/mL (≈ 1 µM)

## CC1(C)S[C@@H]2[C@H](NC(=O)C(=O)Cc3ccccc3)C(=O)N2[C@H]1c1nnn[nH]1 [phenylpyruvoyl, 6-Phenylpyruvamido-2,2-dimethyl-3-(5-tetrazolyl)penam]
  MIC: < 0.1 µg/mL

## CC(=O)C(=O)N[C@@H](C(=O)N[C@@H]1C(=O)N2[C@@H]1SC(C)(C)[C@@H]2c1nnn[nH]1)c1ccccc1 [D-2-(acetylformamido)-2-phenylacetyl]
[1]
  MIC: 50 µg/mL (≈ 113 µM)

## CC1(C)S[C@@H]2[C@H](NC(=O)CNC(=O)NC(=N)c3ccccc3)C(=O)N2[C@H]1c1nnn[nH]1 [2-(3-[benzimidoyl]ureido)-acetyl]
  MIC: < 0.1 µg/mL

## CC1(C)S[C@@H]2[C@H](NC(=O)[C@H](NC(=O)CNC(=N)c3cnc4ccccc4n3)c3ccccc3)C(=O)N2[C@H]1c1nnn[nH]1
  MIC: 0.1 µg/mL (≈ 0.171 µM)

## CCSCC(=O)N[C@@H](C(=O)N[C@@H]1C(=O)N2[C@@H]1SC(C)(C)[C@@H]2c1nnn[nH]1)c1ccccc1
  MIC: < 0.1 µg/mL

## CC1(C)S[C@@H]2[C@H](NC(=O)Nc3ccccc3)C(=O)N2[C@H]1c1nnn[nH]1 [3-phenylcarbamoyl, 6-(3-Phenylureido)-2,2-dimethyl-3-(5-tetrazolyl)penam]
  MIC: < 0.1 µg/mL

## CC1(C)S[C@@H]2[C@H](NC(=O)[C@H](NC(=O)COCC(=O)O)c3ccccc3)C(=O)N2[C@H]1c1nnn[nH]1 [6-(D-2-[Carboxymethoxy]acetamido-2-phenylacetamido)-2,2-dimethyl-3-(5-tetrazolyl)penam]
[1]
  MIC: 0.2 µg/mL (≈ 0.409 µM)

## CC1(C)S[C@@H]2[C@H](NC(=O)/C=C\C(N)=O)C(=O)N2[C@H]1c1nnn[nH]1 [3-(carbamoyl)acryloyl, 6-(3-[Carbamoyl]acrylamido)-2,2-dimethyl-3-(5-tetrazolyl)penam]
[1]
  MIC: < 0.1 µg/mL

## CC1(C)S[C@@H]2[C@H](NC(=O)[C@@H](c3ccccc3)N3C(=O)c4ccccc4C3=O)C(=O)N2[C@H]1c1nnn[nH]1 [D-2-phthalimido-2-phenylacetyl, 6-(D-2-Phthalimido-2-phenylacetamido)-2,2-dimethyl-3-(5-tetrazolyl)penam]
[1]
  MIC: 0.004 µg/mL (≈ 0.00794 µM)

## CC1(C)S[C@@H]2[C@H](NC(=O)Cc3sccc3CN=[N+]=[N-])C(=O)N2[C@H]1c1nnn[nH]1 [2-(3-azidomethyl-2-thienyl-acetyl, 6-(2-[3-Azidomethyl-2-thienyl]acetamido)-2,2-dimethyl-3-(5-tetrazolyl)penam]
  MIC: ≤ 0.1 µg/mL

## CC1(C)S[C@@H]2[C@H](NC(=O)[C@H](NC(=O)OCc3ccccc3)c3ccccc3)C(=O)N2[C@H]1c1nnn[nH]1
  MIC: < 0.1 µg/mL

## CC1(C)S[C@@H]2[C@H](NC(=O)[C@H](NC(=O)CNC(=N)N)c3ccccc3)C(=O)N2[C@H]1c1nn[nH]n1
  MIC: < 0.1 µg/mL

## CC1(C)S[C@@H]2[C@H](NC(=O)[C@H](NC(=O)CCNC(=O)c3ccccc3)c3ccccc3)C(=O)N2[C@H]1c1nnn[nH]1
  MIC: < 0.1 µg/mL

## CC1(C)S[C@@H]2[C@H](NC(=O)[C@H](NC(=O)CNC(=O)NC(=N)c3ccccc3)c3ccccc3)C(=O)N2[C@H]1c1nnn[nH]1
[1]
  MIC: 0.78 µg/mL (≈ 1.35 µM)

## CC1(C)S[C@@H]2[C@H](NC(=O)[C@H](NC(=O)Nc3ccc(Cl)cc3)c3ccc(O)cc3)C(=O)N2[C@H]1c1nnn[nH]1
  MIC: < 0.1 µg/mL
